Measured values: patent US5089623A, “Certain imidate insecticides” (Imperial Chemical Industries Plc, priority 1990, dated 1992)

Experiments:
Type in all cases: in vivo
[1] = system: Cabbage Looper [Trichoplusia ni (Hubner)]; assay: Cabbage looper test (CL); conditions: second-instar larvae, 3-5 days, percent in solution
[2] = system: Maize weevil [Sitophilus Zeamais (Motschulsky)]; assay: Maize weevil test (MW); conditions: adult weevils, treated corn seeds, 48 hours, percent in solution
Procedure, shortened: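 Adult weevils (10) were placed with four corn seeds that had been dipped 2-3 s in compound dissolved in 50:50 acetone:water, then dried, and held at about 25° C. Mortality was scored at 48 h. LC50 was taken from dosage-mortality curves and expressed as percent compound in solution, from a 0.01% top concentration.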

[3] = system: Tobacco Budworm [Heliothis virescens (Fabricius)] eggs; assay: Tobacco budworm egg test (TBW-E); conditions: percent in solution
[4] = system: Housefly [Musca domestica]; assay: Housefly insecticidal test (HF); conditions: per 25 female houseflies, 48 hours

SMILES: CCOc1ccc(N=C(OCc2ccc(F)c(Oc3ccccc3)c2)C(C)C)cc1 [Compound 373]
- LC50 CL [1]: > 0.1%
- LC50 MW [2]: > 0.01%
- LC50 TBW E [3]: > 0.1%
- LC50 HF [4]: < 100 µg

SMILES: CC(C)C(=Nc1ccc(C#N)cc1)OCc1ccc(F)c(Oc2ccc(F)cc2)c1 [Compound 394]
- LC50 CL [1]: 0.00025%
- LC50 MW [2]: > 0.01%
- LC50 TBW E [3]: 0.05%
- LC50 HF [4]: < 100 µg

SMILES: CC(C)(C)C(=Nc1cccc(C(F)(F)F)c1)OCc1cccc(Oc2ccccc2)c1 [Compound 88]
- LC50 CL [1]: 0.018%
- LC50 MW [2]: > 0.01%
- LC50 TBW E [3]: > 0.1%
- LC50 HF [4]: > 100 µg

SMILES: CC(C)C(=Nc1ccc(Br)cc1)OCc1coc(Cc2ccccc2)c1 [Compound 478]
- LC50 CL [1]: 0.0037%
- LC50 MW [2]: > 0.01%
- LC50 TBW E [3]: > 0.1%
- LC50 HF [4]: 15 µg

SMILES: CC(C)C(=Nc1ccc(OC(F)(F)C(F)Cl)cc1)OCc1ccc(F)c(Oc2ccccc2)c1 (stereo not drawn) [Compound 419]
- LC50 CL [1]: > 0.1%
- LC50 MW [2]: > 0.01%
- LC50 TBW E [3]: > 0.1%
- LC50 HF [4]: > 100 µg

SMILES: CC(C)C(=Nc1cccc(C(F)(F)F)c1)OCc1ccnc(Oc2ccccc2)c1 [Compound 507]
- LC50 CL [1]: 0.002%
- LC50 MW [2]: > 0.01%
- LC50 TBW E [3]: > 0.1%
- LC50 HF [4]: 93 µg

SMILES: Cc1cc(N=C(OCc2ccc(F)c(Oc3ccc(F)cc3)c2)C(C)C)ccc1F [Compound 396]
- LC50 CL [1]: 0.0017%
- LC50 MW [2]: > 0.01%
- LC50 TBW E [3]: < 0.1%
- LC50 HF [4]: < 100 µg

SMILES: CC(C)C(=Nc1ccc(OCC(F)(F)F)cc1)OCc1ccc(F)c(Oc2ccccc2)c1 [Compound 422]
- LC50 CL [1]: 0.00075%
- LC50 MW [2]: > 0.01%
- LC50 TBW E [3]: 0.05%
- LC50 HF [4]: < 100 µg

SMILES: CC(C)C(=Nc1ccc(F)c(Br)c1)OCc1cccc(Oc2ccccc2)n1 [Compound 558]
- LC50 CL [1]: 0.00045%
- LC50 MW [2]: > 0.01%
- LC50 TBW E [3]: > 0.1%
- LC50 HF [4]: < 100 µg

SMILES: CC(C)C(=Nc1ccc(I)c(Cl)c1)OCc1cccc(Oc2ccc(Cl)cc2)n1 [Compound 471]
- LC50 CL [1]: 0.00018%
- LC50 MW [2]: > 0.01%
- LC50 TBW E [3]: 0.018%
- LC50 HF [4]: < 100 µg

SMILES: COc1ccc(Oc2cccc(COC(=Nc3ccc(C(C)(C)C)cc3)C(C)C)c2)cc1 [Compound 345]
- LC50 CL [1]: 0.018%
- LC50 MW [2]: > 0.01%
- LC50 TBW E [3]: > 0.1%
- LC50 HF [4]: > 100 µg

SMILES: Cc1ccc(N=C(OCc2ccc(F)c(Oc3ccc(Cl)cc3)c2)C(C)C)cc1C [Compound 406]
- LC50 CL [1]: > 0.1%
- LC50 MW [2]: > 0.01%
- LC50 TBW E [3]: < 0.1%
- LC50 HF [4]: < 100 µg

SMILES: CCc1ccc(N=C(OCc2cccc(Oc3ccc(F)cc3)c2)C(C)C)cc1Cl [Compound 438]
- LC50 CL [1]: 0.0009%
- LC50 MW [2]: > 0.01%
- LC50 TBW E [3]: < 0.1%
- LC50 HF [4]: > 100 µg

SMILES: C=C(C)C(=Nc1ccc(C(F)(F)F)cc1)OCc1cccc(Oc2ccc(F)cc2)c1 [Compound 442]
- LC50 CL [1]: 0.0007%
- LC50 MW [2]: > 0.01%
- LC50 TBW E [3]: 0.035%
- LC50 HF [4]: < 100 µg

SMILES: Cc1cccc(N=C(OCc2cccc(Oc3ccc(F)cc3)c2)C(C)C)c1 [Compound 405]
- LC50 CL [1]: > 0.1%
- LC50 MW [2]: > 0.01%
- LC50 TBW E [3]: > 0.1%
- LC50 HF [4]: < 100 µg

SMILES: CC(C)C(=Nc1ccc(Br)c(Br)c1)OCc1ccc(F)c(Oc2ccccc2)c1 [Compound 384]
- LC50 CL [1]: > 0.1%
- LC50 MW [2]: > 0.01%
- LC50 TBW E [3]: 0.025%
- LC50 HF [4]: < 100 µg

SMILES: CC(C)C(=Nc1ccc(S(C)(=O)=O)cc1)OCc1ccc(F)c(Oc2ccc(F)cc2)c1 [Compound 414]
- LC50 CL [1]: 0.0024%
- LC50 MW [2]: > 0.01%
- LC50 TBW E [3]: > 0.1%
- LC50 HF [4]: < 100 µg

SMILES: CCOc1ccc(N=C(OCc2cccc(Oc3ccccc3)c2)C(C)C)cc1 [Compound 371]
- LC50 CL [1]: 0.0022%
- LC50 MW [2]: > 0.01%
- LC50 TBW E [3]: > 0.1%
- LC50 HF [4]: < 100 µg

SMILES: Fc1ccc(Oc2cccc(COC(=Nc3ccc(F)c(Cl)c3)C3CC3)c2)cc1 [Compound 116]
- LC50 CL [1]: 0.00025%
- LC50 MW [2]: > 0.01%
- LC50 TBW E [3]: 0.05%
- LC50 HF [4]: 15 µg

SMILES: CC(C)C(=Nc1ccc(C(F)(F)F)cc1Cl)OCc1ccc(F)c(Oc2ccccc2)c1 [Compound 428]
- LC50 CL [1]: 0.0017%
- LC50 MW [2]: > 0.01%
- LC50 TBW E [3]: > 0.1%
- LC50 HF [4]: > 100 µg

SMILES: C=C(C)C(=Nc1ccc(F)c(Cl)c1)OCc1ccc(F)c(Oc2ccc(Cl)cc2)c1 [Compound 415]
- LC50 CL [1]: 0.00075%
- LC50 MW [2]: > 0.01%
- LC50 TBW E [3]: 0.035%
- LC50 HF [4]: < 100 µg

SMILES: CC(C)C(=Nc1ccc(Cl)c(C(F)(F)F)c1)OCc1cccc(Oc2ccccc2)n1 [Compound 555]
- LC50 CL [1]: 0.002%
- LC50 MW [2]: > 0.01%
- LC50 TBW E [3]: > 0.1%
- LC50 HF [4]: < 100 µg

SMILES: CC(C)C(=Nc1ccc(F)c(F)c1)OCc1cccc(Oc2ccc(Cl)cc2)n1 [Compound 559]
- LC50 CL [1]: 0.00027%
- LC50 MW [2]: > 0.01%
- LC50 TBW E [3]: 0.017%
- LC50 HF [4]: < 100 µg

SMILES: CCOc1cccc(N=C(OCc2ccc(F)c(Oc3ccc(F)cc3)c2)C(C)C)c1 [Compound 426]
- LC50 CL [1]: 0.002%
- LC50 MW [2]: > 0.01%
- LC50 TBW E [3]: > 0.1%
- LC50 HF [4]: > 100 µg

SMILES: Cc1ccc(Oc2cccc(COC(=Nc3ccc(C(C)(C)C)cc3)C(C)C)c2)cc1 [Compound 344]
- LC50 CL [1]: 0.024%
- LC50 MW [2]: > 0.01%
- LC50 TBW E [3]: > 0.1%
- LC50 HF [4]: > 100 µg

SMILES: CCOc1ccc(N=C(OCc2ccc(F)c(Oc3ccccc3)c2)C(C)C)cc1F [Compound 439]
- LC50 CL [1]: 0.00045%
- LC50 MW [2]: > 0.01%
- LC50 TBW E [3]: > 0.1%
- LC50 HF [4]: > 100 µg

SMILES: CC(C)c1ccc(N=C(OCc2cccc(Oc3ccccc3)c2)C2CCC2)cc1 [Compound 339]
- LC50 CL [1]: 0.017%
- LC50 MW [2]: > 0.01%
- LC50 TBW E [3]: > 0.1%
- LC50 HF [4]: > 100 µg

SMILES: CC(Br)C(=Nc1ccc2c(c1)OCO2)OCc1cccc(Oc2ccccc2)c1 (stereo not drawn) [Compound 306]
- LC50 CL [1]: 0.005%
- LC50 MW [2]: > 0.01%
- LC50 TBW E [3]: 0.1%
- LC50 HF [4]: > 100 µg

SMILES: CC(C)C(=Nc1ccc(Br)c(F)c1)OCc1cccc(Oc2ccc(Cl)cc2)n1 [Compound 551]
- LC50 CL [1]: 0.00075%
- LC50 MW [2]: > 0.01%
- LC50 TBW E [3]: 0.035%
- LC50 HF [4]: < 100 µg

SMILES: CCc1ccccc1N=C(OCc1cccc(Oc2ccc(F)cc2)c1)C(C)C [Compound 411]
- LC50 CL [1]: > 0.1%
- LC50 MW [2]: > 0.01%
- LC50 TBW E [3]: > 0.1%
- LC50 HF [4]: < 100 µg

SMILES: CC(C)C(=Nc1ccc(F)cc1F)OCc1coc(Cc2ccccc2)c1 [Compound 486]
- LC50 CL [1]: > 0.1%
- LC50 MW [2]: > 0.01%
- LC50 TBW E [3]: > 0.1%
- LC50 HF [4]: 15 µg

SMILES: C=C(C)C(=Nc1ccc(C(F)(F)F)cc1)OCc1cccc(Oc2ccccc2)c1 [Compound 430]
- LC50 CL [1]: 0.001%
- LC50 MW [2]: 0.004%
- LC50 TBW E [3]: 0.032%
- LC50 HF [4]: < 100 µg

SMILES: CC(C)C(=Nc1ccc(OCC(F)(F)F)cc1)OCc1cccc(Oc2ccccc2)c1 [Compound 423]
- LC50 CL [1]: 0.002%
- LC50 MW [2]: > 0.01%
- LC50 TBW E [3]: > 0.1%
- LC50 HF [4]: > 100 µg
